Reference: ChEMBL document CHEMBL5331132, “Expanding the Chemistry of Dihaloacetamides as Tunable Electrophiles for Reversible Covalent Targeting of Cysteines” (J Med Chem, 2023)
Activity calls are given as the source filed them. No cut-off for these calls is given here.

What was measured:
NCI-H358 = test: Antiproliferative activity against human NCI-H358 cells harboring KRAS p.G12C mutant assessed as inhibition of cell growth incubated for 72 hrs by cell count reagent SF based assay; type: functional; conditions: NCI-H358, 72 h
[1] = tested on: GTPase KRas (Homo sapiens), P01116 [G12C]; test: Inhibition of KRAS G12C mutant in human NCI-H358 cells assessed as reduction in ERK1/2 phosphorylation at T185/Y187 residues at 1 uM incubated for 4 hrs by Western blot analysis; type: cell-based
[2] = tested on: GTPase KRas (Homo sapiens), P01116 [G12C]; test: Inhibition of KRAS G12C mutant in human NCI-H358 cells assessed as reduction in ERK1/2 phosphorylation at T185/Y187 residues at 0.1 uM incubated for 4 hrs by Western blot analysis relative to control; type: cell-based
[3] = Metabolic stability in human liver microsomes assessed as clearance at 1 uM incubated for 30 mins by LC-MS/MS analysis; type: ADME, Microsome; conditions: read-out: CLH
[4] = tested on: GTPase KRas (Homo sapiens), P01116 [G12C]; test: Inhibition of KRAS G12C mutant in human NCI-H358 cells assessed as reduction in ERK1/2 phosphorylation at T185/Y187 residues upto 10 uM incubated for 4 hrs by Western blot analysis; type: cell-based
[5] = tested on: GTPase KRas (Homo sapiens), P01116 [G12C]; test: Binding affinity to KRAS G12C mutant in human NCI-H358 cells assessed as protein labelling at 1 uM incubated for 1 hrs by In-gel fluorescence analysis; type: cell-based
[6] = tested on: GTPase KRas (Homo sapiens), P01116 [G12C]; test: Covalent binding affinity to recombinant human KRAS G12C mutant (1 to 169 residues) expressed in Escherichia coli BL21 (DE3) gold assessed as protein labelling at 1 uM incubated for 2 hrs by In-gel fluorescence analysis
[7] = Antiproliferative activity against human gefitinib resistant NCI-H1975 cells harboring EGFR L858R/T790M double mutant assessed as inhibition of cell proliferation incubated for 72 hrs by cell count reagent SF based assay; type: functional
[8] = Glutathione reactivity in potassium phosphate buffer at pH 7.2 assessed as half life at 1 mM by UHPLC analysis; type: physicochemical
MIA PaCa-2 = test: Antiproliferative activity against human MIA PaCa-2 cells assessed as inhibition of cell growth incubated for 72 hrs by cell count reagent SF based assay; type: functional; conditions: MIA PaCa-2, 72 h
[9] = tested on: GTPase KRas (Homo sapiens), P01116 [G12C]; test: Inhibition of KRAS G12C mutant in human NCI-H358 cells assessed as reduction in ERK1/2 phosphorylation at T185/Y187 residues at 0.001 to 1 uM incubated for 4 hrs by Western blot analysis; type: cell-based; conditions: dose 0.001-1 µM
[10] = tested on: GTPase KRas (Homo sapiens), P01116 [G12C]; test: Inhibition of KRAS G12C mutant in human NCI-H358 cells assessed as reduction in ERK1/2 phosphorylation at T185/Y187 residues at 0.5 uM incubated for 0.5 to 4 hrs by Western blot analysis; type: cell-based; conditions: time 0.5-4 hrs
[11] = tested on: GTPase KRas (Homo sapiens), P01116 [G12C]; test: Inhibition of KRAS G12C mutant in human MIA PaCa-2 cells assessed as reduction in ERK1/2 phosphorylation at T185/Y187 residues at 0.001 to 1 uM incubated for 4 hrs by Western blot analysis; type: cell-based; conditions: dose 0.001-1 µM
[12] = tested on: GTPase KRas (Homo sapiens), P01116 [G12C]; test: Inhibition of KRAS G12C mutant in human MIA PaCa-2 cells assessed as reduction in ERK1/2 phosphorylation at T185/Y187 residues at 0.5 uM incubated for 0.5 to 4 hrs by Western blot analysis; type: cell-based; conditions: time 0.5-4 hrs
[13] = tested on: GTPase KRas (Homo sapiens), P01116 [G12C]; test: Irreversible inhibition of KRAS G12C mutant in human NCI-H358 cells assessed as reduction in ERK1/2 phosphorylation at T185/Y187 residues at 0.001 to 1 uM incubated for 4 hrs followed by washout and further incubated with fresh medium for 4 hrs by Western blot analysis; type: cell-based; conditions: dose 0.001-1 µM
[14] = tested on: GTPase KRas (Homo sapiens), P01116 [G12C]; test: Covalent inhibition of KRAS G12C mutant in human NCI-H358 cells assessed as reduction in protein labelling by probe at 1 uM preincubated for 3 hrs and further incubated with 2-((S)-4-(7-(8-chloronaphthalen-1-yl)-2-(((S)-1-(pent-4-yn-1-yl)pyrrolidin-2-yl)methoxy)-5,6,7,8-tetrahydropyrido[3,4-d]pyrimi …; type: cell-based; conditions: time 4.0 hrs
[15] = biological target: Epidermal growth factor receptor (Homo sapiens) (UniProt P00533); test: Inhibition of EGFR autophosphorylation at Y1068 residue in human NCI-H1975 cells at 0.01 to 1 uM incubated for 4 hrs by Western blot analysis; type: cell-based; conditions: dose 0.01-1 µM
[16] = biological target: Epidermal growth factor receptor (Homo sapiens) (UniProt P00533); test: Inhibition of EGFR autophosphorylation in human NCI-H1975 cells assessed as reduction in ERK1/2 phosphorylation at T185/Y187 residue at 0.01 to 1 uM incubated for 4 hrs by Western blot analysis; type: cell-based; conditions: dose 0.01-1 µM

CN1CCC[C@H]1COc1nc2c(c(N3CCN(C(=O)[C@@H](F)Cl)[C@@H](CC#N)C3)n1)CCN(c1cccc3cccc(Cl)c13)C2
IC50 (NCI-H358): 12.3 nM | inhibition [1]: Active | inhibition [2]: 100% | microsomal CLint at 1 µM [3]: 272 µL/min/mg

CC(=O)N1CCN(c2nc(OC[C@@H]3CCCN3C)nc3c2CCN(c2cccc4cccc(Cl)c24)C3)C[C@@H]1CC#N (racemic)
IC50 (NCI-H358): > 10000 nM | inhibition [4]: inactive

C#CCCCN1CCC[C@H]1COc1nc2c(c(N3CCN(C(=O)C(=C)F)[C@@H](CC#N)C3)n1)CCN(c1cccc3cccc(Cl)c13)C2
Activity [5]: Active

C#CCCCN1CCC[C@H]1COc1nc2c(c(N3CCN(C(=O)[C@@H](F)Cl)[C@@H](CC#N)C3)n1)CCN(c1cccc3cccc(Cl)c13)C2
IC50 (NCI-H358): 365 nM | Activity [6]: Active

CN1CCC[C@H]1COc1nc2c(c(N3CCN(C(=O)C(F)Cl)CC3)n1)CCN(c1cccc3cccc(Cl)c13)C2 (some centres undefined)
IC50 (NCI-H358): 4800 nM

O=C(Nc1cc2c(Nc3ccc(F)c(Cl)c3)ncnc2cc1OCCCN1CCOCC1)[C@H]1CCCN1C(=O)C(F)Cl (some centres undefined)
IC50 [7]: 280 nM

C#CCOCCOCCOc1cccc(N2CCN(C(=O)CF)CC2)c1
half-life at 1000 µM [8]: > 167 h

CN1CCC[C@H]1COc1nc2c(c(N3CCN(C(=O)C(Cl)Cl)[C@@H](CC#N)C3)n1)CCN(c1cccc3ccc(F)c(Cl)c13)C2
IC50 (NCI-H358): 10 nM | IC50 (MIA PaCa-2): 5.68 nM | inhibition [9]: Active | inhibition [10]: Active | inhibition [11]: Active | inhibition [12]: Active | inhibition [13]: Active | inhibition [14]: Active | microsomal CLint at 1 µM [3]: 110 µL/min/mg

C#CCOCCOCCOc1cccc(N2CCN(C(=O)C(F)F)CC2)c1
half-life at 1000 µM [8]: 129 h

C=C(F)C(=O)N1CCN(c2nc(OC[C@@H]3CCCN3C)nc3c2CCN(c2cccc4cccc(Cl)c24)C3)C[C@@H]1CC#N [ADAGRASIB]
IC50 (NCI-H358): 9.2 nM | IC50 (MIA PaCa-2): 3.92 nM | microsomal CLint at 1 µM [3]: 215 µL/min/mg

CN1CCC[C@H]1COc1nc2c(c(N3CCN(C(=O)[C@H](F)Cl)[C@@H](CC#N)C3)n1)CCN(c1cccc3cccc(Cl)c13)C2
IC50 (NCI-H358): 162 nM

CN1CCC[C@H]1COc1nc2c(c(N3CCN(C(=O)C(Cl)Cl)[C@@H](CC#N)C3)n1)CCN(c1cccc3cccc(Cl)c13)C2
IC50 (NCI-H358): 26.1 nM | inhibition [1]: Active | inhibition [2]: 100% | microsomal CLint at 1 µM [3]: 226 µL/min/mg

CN1CCC[C@H]1COc1nc2c(c(N3CCN(C(=O)CCl)[C@@H](CC#N)C3)n1)CCN(c1cccc3cccc(Cl)c13)C2
IC50 (NCI-H358): 1390 nM

C#CCOCCOCCOc1cccc(N2CCN(C(=O)C(F)(F)Br)CC2)c1
half-life at 1000 µM [8]: 33.4 h

O=C(Nc1cc2c(Nc3ccc(F)c(Cl)c3)ncnc2cc1OCCCN1CCOCC1)[C@H]1CCCN1C(=O)C(Cl)Cl
IC50 [7]: 490 nM | inhibition [15]: Active | inhibition [16]: Active

C#CCOCCOCCOc1cccc(N2CCN(C(=O)C(C)(F)Br)CC2)c1 (centres undefined)
half-life at 1000 µM [8]: > 167 h

CN1CCC[C@H]1COc1nc2c(c(N3CCN(C(=O)C(F)Cl)[C@@H](CC#N)C3)n1)CCN(c1cccc3cccc(Cl)c13)C2 (some centres undefined)
IC50 (NCI-H358): 16.7 nM

C#CCCCN1CCC[C@H]1COc1nc2c(c(N3CCN(C(=O)C(Cl)Cl)[C@@H](CC#N)C3)n1)CCN(c1cccc3ccc(F)c(Cl)c13)C2
IC50 (NCI-H358): 69.7 nM | Activity [6]: Active
